Experimental data taken from patent US9434724B2, “Quinuclidines for modulating alpha 7 activity” (priority 2014, dated 2016).
pIC50, pKi: −log10 of the molar value. Read-outs that look alike come from different tables or passages of the source.

Key:
[1] = biological target: T1, rat brain nicotinic receptor (α7 NAChR) (Rattus norvegicus (Rat), UniProt Q05941); format: binding
hERG channels = hERG channels (Homo sapiens (Human), UniProt Q12809); assay: hERG inhibition assay (automated patch clamp, CHO cells); format: cell-based
hERG channels, sequence (Q12809 whole entry): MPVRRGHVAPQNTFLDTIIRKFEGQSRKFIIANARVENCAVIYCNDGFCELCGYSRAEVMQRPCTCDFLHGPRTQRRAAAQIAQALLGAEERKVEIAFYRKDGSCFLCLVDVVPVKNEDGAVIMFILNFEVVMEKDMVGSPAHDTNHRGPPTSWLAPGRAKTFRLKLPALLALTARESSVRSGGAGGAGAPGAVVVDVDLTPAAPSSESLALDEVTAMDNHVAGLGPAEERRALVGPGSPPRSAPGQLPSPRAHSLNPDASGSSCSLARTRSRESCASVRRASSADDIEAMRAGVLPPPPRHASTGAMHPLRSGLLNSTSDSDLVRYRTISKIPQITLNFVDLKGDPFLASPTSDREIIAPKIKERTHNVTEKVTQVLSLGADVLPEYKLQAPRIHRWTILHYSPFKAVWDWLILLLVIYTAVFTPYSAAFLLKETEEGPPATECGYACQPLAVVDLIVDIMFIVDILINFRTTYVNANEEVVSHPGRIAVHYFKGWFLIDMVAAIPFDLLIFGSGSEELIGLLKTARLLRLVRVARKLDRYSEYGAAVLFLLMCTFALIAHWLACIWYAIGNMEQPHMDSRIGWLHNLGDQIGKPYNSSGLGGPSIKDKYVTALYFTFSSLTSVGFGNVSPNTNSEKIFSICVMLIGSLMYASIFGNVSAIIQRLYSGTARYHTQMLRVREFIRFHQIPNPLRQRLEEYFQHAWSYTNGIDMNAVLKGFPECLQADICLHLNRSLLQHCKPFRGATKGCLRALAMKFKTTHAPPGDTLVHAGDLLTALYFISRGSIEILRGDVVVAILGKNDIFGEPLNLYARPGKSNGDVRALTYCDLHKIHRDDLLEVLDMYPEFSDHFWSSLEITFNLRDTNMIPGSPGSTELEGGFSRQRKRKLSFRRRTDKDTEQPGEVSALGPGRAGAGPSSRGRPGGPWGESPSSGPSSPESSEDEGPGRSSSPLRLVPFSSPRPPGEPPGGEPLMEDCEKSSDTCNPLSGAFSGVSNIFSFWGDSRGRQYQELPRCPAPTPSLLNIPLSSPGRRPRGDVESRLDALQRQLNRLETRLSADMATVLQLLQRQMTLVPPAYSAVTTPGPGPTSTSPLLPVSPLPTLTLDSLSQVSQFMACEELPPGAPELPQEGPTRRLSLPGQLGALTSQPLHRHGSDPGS
Description: hERG study was conducted with an automated patch clamp machine, Qpatch-48HT (Sophion Biosciences, Denmark). Cultured CHO cells stably expressing hERG channels (provided by Sophion Biosciences, Denmark) were harvested from culture flasks of 70-90% cell confluence rate and prepared as cell suspension with a cell density of 3-8×10^6 cells/mL in serum-free media (CHO-S-SFM II, cat#12052 Invitrogen; 25 mM HEPES). Cells in such condition were placed into a Qpatch cell stir chamber and used within 4 hours.
For each run, cells were first spun down by the built-in Qpatch centrifuge and re-suspended in an extracellular solution (in mM, 2 CaCl2, 1 MgCl2, 4 KCl, 145 NaCl, 10 Glucose, 10 HEPES, pH 7.4, osmolarity ˜305 mOsm). Qplate-48 that holds one cell in each of its 48 channels for the later voltage-clamped assay were primed with the extracellular solution and intracellular solution (in mM, 5.4 CaCl2, 1.75 MgCl2, 120 KCl, 10 HEPES, 5 EGTA, 4 NaATP, pH 7.25, Osmolarity ˜280-295 mOsm). Cells were dispatched by Qpatch robotic dispensing guns into each Qplate channel and went through the process of giga-ohm sealing and whole cell configuration. Whole-cell recordings were performed in voltage-clamp mode at a holding potential of −80 mV. […]

CYP3A4 = CYP3A4 (Homo sapiens (Human), UniProt P08684); conditions: microsomes, 5 min
CYP3A4, sequence (P08684 whole entry): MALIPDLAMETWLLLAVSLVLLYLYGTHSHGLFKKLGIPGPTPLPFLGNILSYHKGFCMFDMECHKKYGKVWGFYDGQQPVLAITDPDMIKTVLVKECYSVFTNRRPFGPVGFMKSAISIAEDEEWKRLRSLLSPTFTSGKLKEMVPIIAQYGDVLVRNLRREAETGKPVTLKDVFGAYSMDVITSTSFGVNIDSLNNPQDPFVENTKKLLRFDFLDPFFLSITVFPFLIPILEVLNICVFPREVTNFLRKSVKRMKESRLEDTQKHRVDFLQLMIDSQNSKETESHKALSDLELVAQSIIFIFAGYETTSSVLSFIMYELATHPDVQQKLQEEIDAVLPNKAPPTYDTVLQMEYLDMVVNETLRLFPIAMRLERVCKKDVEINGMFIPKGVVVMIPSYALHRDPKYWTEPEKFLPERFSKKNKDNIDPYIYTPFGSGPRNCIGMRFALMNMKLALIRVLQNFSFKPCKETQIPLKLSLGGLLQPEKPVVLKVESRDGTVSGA

CYP1A2 = CYP1A2 (Homo sapiens (Human), UniProt P05177); assay: Cytochrome P450 inhibition in human liver microsomes, CYP1A2; conditions: read-out: 1A2 IC50, Protocol 1
CYP1A2, sequence (P05177 whole entry): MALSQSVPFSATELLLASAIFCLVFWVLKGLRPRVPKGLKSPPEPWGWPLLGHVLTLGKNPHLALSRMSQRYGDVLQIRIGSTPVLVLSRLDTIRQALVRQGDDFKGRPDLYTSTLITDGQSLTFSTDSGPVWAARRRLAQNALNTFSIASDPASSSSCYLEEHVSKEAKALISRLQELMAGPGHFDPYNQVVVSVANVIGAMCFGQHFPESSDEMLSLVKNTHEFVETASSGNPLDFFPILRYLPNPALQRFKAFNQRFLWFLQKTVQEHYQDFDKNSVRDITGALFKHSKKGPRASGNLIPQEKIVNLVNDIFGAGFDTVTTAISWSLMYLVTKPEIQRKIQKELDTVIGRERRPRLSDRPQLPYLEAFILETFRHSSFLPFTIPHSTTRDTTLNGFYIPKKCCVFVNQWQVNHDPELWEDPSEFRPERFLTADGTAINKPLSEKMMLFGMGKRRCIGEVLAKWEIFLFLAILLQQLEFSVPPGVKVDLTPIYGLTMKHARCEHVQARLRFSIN

CYP2C9 = CYP2C9 (Homo sapiens (Human), UniProt P11712); assay: Cytochrome P450 inhibition in human liver microsomes, CYP2C9; conditions: read-out: 2C9 IC50, Protocol 1
CYP2C9, sequence (P11712 whole entry): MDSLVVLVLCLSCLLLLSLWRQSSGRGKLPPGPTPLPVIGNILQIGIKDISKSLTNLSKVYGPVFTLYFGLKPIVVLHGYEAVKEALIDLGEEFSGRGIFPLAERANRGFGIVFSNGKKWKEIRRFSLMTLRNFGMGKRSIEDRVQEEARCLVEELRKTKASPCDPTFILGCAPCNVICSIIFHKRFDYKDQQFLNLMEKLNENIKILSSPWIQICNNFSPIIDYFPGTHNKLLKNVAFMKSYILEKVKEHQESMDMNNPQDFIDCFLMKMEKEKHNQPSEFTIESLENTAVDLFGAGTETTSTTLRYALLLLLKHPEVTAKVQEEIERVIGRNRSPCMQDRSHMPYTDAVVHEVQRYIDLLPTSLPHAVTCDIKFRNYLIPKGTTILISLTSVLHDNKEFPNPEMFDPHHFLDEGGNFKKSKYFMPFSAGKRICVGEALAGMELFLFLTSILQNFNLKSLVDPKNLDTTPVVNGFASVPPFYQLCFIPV

CYP2C19 = CYP2C19 (Homo sapiens (Human), UniProt P33261); assay: Cytochrome P450 inhibition in human liver microsomes, CYP2C19; conditions: read-out: 2C19 IC50, Protocol 1
CYP2C19, sequence (P33261 whole entry): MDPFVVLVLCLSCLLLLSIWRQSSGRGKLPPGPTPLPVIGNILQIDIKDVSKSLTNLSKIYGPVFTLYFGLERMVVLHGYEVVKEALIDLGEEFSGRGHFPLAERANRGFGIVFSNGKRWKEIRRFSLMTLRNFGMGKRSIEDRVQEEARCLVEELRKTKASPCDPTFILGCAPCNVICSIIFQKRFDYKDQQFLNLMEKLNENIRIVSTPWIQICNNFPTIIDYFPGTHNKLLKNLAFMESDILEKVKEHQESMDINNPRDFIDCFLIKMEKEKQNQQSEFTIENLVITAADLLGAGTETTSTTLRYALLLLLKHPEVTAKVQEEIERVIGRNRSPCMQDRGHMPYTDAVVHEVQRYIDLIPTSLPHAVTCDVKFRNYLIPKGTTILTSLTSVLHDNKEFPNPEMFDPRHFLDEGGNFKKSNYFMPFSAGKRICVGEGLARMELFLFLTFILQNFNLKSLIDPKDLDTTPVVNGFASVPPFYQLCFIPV

Human α7 NAChR = Human α7 NAChR (Homo sapiens (Human), UniProt P36544); assay: Electrophysiology screen at 1 μM in Xenopus laevis oocytes; format: cell-based; conditions: 1 μM test compound; Imax = maximal current produced by 3 mM ACh
Human α7 NAChR, sequence (P36544 23-502 limits assumed): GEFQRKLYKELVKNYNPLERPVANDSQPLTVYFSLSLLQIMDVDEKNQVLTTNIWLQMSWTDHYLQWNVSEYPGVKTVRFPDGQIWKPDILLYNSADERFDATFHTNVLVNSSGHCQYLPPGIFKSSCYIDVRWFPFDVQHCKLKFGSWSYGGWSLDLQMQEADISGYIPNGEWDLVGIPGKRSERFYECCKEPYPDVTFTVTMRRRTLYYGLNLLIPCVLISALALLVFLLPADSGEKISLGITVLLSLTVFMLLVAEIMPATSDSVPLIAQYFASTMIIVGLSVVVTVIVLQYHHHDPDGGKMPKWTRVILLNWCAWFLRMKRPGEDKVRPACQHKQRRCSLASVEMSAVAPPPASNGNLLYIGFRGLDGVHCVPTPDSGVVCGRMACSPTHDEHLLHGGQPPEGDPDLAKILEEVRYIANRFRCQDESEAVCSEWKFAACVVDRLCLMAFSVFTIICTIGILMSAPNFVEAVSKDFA
Description: Human α7 NAChR plasmid was prepared by GeneWiz from accession NM_000746.5. Human α7 NAChR mRNA was prepared by TriLink at a concentration near 1 μg/μL. The human α7 NAChR mRNA was diluted in sterile water to a working concentration near 10 ng/μL.
Oocytes were obtained from Xenopus laevis frogs and treated with collagenase by Ecocyte Bioscience. Oocytes were injected with the working concentration of α7 NAChR mRNA at a volume of 50 nL for a total of approximately 0.5 ng of α7 NAChR mRNA. Oocytes were maintained in Barth's solution at a temperature of 16° C. The Barth's solution was replaced daily.
Two-electrode voltage clamp recordings were made 3-14 days following mRNA injections at a holding voltage of −70 mV. The NAChR recordings were performed in Ca^++-free Ringer solution (115 mM NaCl, 2 mM KCl, 1.8 mM BaCl2, 5 mM HEPES; pH˜7.4) to limit Ca^++-activated chloride currents.
In all oocyte recordings, drug and wash solutions were applied using a custom-designed microcapillary “linear array” which allows rapid application of agonists. Currents were recorded on a PC-based computer (PClamp, Molecular Devices, Sunnyvale, Calif.). Responses were reported as (I/Imax), where I is the amount of current given by a selected concentration of drug and Imax is the amount of maximal current produced by a 3 mM solution of ACh.
Stocks of test compounds were prepared in DMSO. Test solutions in Ringer were prepared immediately before application of test compound (final DMSO concentration of 0.1%). The final concentration of test compound in the test solution was 1 μM. The test solution was perfused onto the oocyte until a peak current was recorded. There was approximately two minutes of wash time with only the Ringer solution between each application of agonist. Measurement of the test solution was repeated between 2 and 6 times with a two minute wash time between each application of test solution. An average of the currents for each test compound was used to define the response for the test compound.

[2] = biological target: T1, rat brain nicotinic receptor (α7 NAChR); format: binding; conditions: Protocol No. 2; [3H] α-Bungarotoxin 0.4 nM, rat brain P2 membrane
[3] = Caco-2 permeability assay; format: in vitro ADME; conditions: human
Description: Caco-2 cells were obtained from American Tissue Culture Collection (Rockville, Md.). The cells were maintained in Modified Eagle's medium (MEM), containing 10% heat-inactivated fetal bovine serum (FCS) and 1% non-essential amino acids, in CO2 at 37° C. Cells were seeded on polycarbonate filter inserts (Millipore, CAT#PSHT 010 R5).
The cells were cultivated for 21-28 days prior to the transport experiments. The transepithelial electric resistance (TEER) and Lucifer Yellow permeability were checked routinely before and after the assay. Compounds were dissolved at 10 mM in 100% dimethyl sulfoxide (DMSO) and diluted for studies in Hank's Balanced Salt Solution (HBSS, Invitrogen, Cat#14025-092) with 25 mM HEPES, pH 7.4. Compounds were tested at 10 μM, and in both the apical-to-basolateral (A-B) and basolateral-to-apical (B-A) directions, at 37° C. for 90 min. At the end of incubation, donor samples were diluted 10-fold by assay buffer, then 60 μL of receiver and diluted-donor samples were mixed with 60 μL of acetonitrile, and analyzed by LC-MS/MS. The concentrations of the compounds were quantified by standard curve.

T1 sequence (Q05941 23-502 limits assumed): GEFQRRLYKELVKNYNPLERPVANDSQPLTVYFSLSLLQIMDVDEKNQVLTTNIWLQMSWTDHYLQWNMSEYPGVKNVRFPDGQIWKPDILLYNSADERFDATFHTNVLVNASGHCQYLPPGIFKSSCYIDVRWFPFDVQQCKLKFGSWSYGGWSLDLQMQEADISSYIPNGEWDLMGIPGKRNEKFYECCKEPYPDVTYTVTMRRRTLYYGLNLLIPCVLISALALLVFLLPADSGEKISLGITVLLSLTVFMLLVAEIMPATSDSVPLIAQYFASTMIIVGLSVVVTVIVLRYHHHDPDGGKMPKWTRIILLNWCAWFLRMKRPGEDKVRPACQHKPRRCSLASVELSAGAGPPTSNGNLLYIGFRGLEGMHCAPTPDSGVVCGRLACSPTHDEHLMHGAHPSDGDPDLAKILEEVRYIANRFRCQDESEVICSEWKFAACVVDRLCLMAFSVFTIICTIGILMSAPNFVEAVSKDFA

O=C(OCC12CCN(CC1)CC2)c1c[nH]c2cc(O)cc(Cl)c12 [Compound 46, quinuclidin-4-ylmethyl 4-chloro-6-hydroxy-1H-indole-3-carboxylate]
pIC50 [1]: 7.48
pKi [1]: 7.54
pIC50 (hERG channels): < 4.52
pIC50 (CYP3A4): < 5.00
pIC50 (CYP1A2): < 5.00
pIC50 (CYP2C9): < 5.00
pIC50 (CYP2C19): < 5.00

Cc1cc(Cl)c2c(C(=O)OCC34CCN(CC3)CC4)c[nH]c2c1.Cl [Compound 65, quinuclidin-4-ylmethyl 4-chloro-6-methyl-1H-indole-3-carboxylate hydrochloride]
pIC50 [1]: 7.20
pKi [1]: 7.26
I/Imax (Human α7 NAChR): 0.212
pIC50 (hERG channels): 5.61

COc1c(OCC(F)(F)F)ccc2[nH]cc(C(=O)OCC34CCN(CC3)CC4)c12 [Compound 88, quinuclidin-4-ylmethyl 4-methoxy-5-(2,2,2-trifluoroethoxy)-1H-indole-3-carboxylate]
pIC50 [2]: 6.68
pKi [2]: 6.45
I/Imax (Human α7 NAChR): 0.185
efflux ratio at 90 min, 10 μM ([3]; pH 7.4, Caco-2, 10 μM): 7.86
Papp A→B at 90 min, 10 μM ([3]; pH 7.4, Caco-2, apical-to-basolateral, 10 μM): 3.25 ×10⁻⁶ cm/s
Papp B→A at 90 min, 10 μM ([3]; pH 7.4, Caco-2, basolateral-to-apical, 10 μM): 25.5 ×10⁻⁶ cm/s
